From paper PMC12508057, “Discovery of ETI41 and ETI60: novel selective endosomal Toll-like receptor inhibitors for the treatment of autoimmune diseases” (Experimental & Molecular Medicine, 2025)

What was measured:
Format in all cases: cell-based
[1] = MTT assay, cell survival in RAW 264.7; settings: mouse, RAW 264.7 cells, RAW 264.7 cell line, read-out: LC50
Method: After 24 h, the supernatant was removed, and 500 μg/ml of 3-[4,5-dimethylthiazol-2-yl]-2,5 diphenyl tetrazolium bromide (MTT) solution (Invivogen) was added. After a 3 h incubation, the supernatant was removed, and DMSO was added to dissolve the formazan dye.
One-tailed paired Student’s t-tests were performed using Microsoft Excel (Microsoft). […] The therapeutic index was calculated as […]. Animal experimental results are expressed as mean ± standard deviation and analyzed using SPSS v.20 (IBM SPSS Statistics). Homogeneity of variance was assessed using Levene’s test.
Data are from at least three independent experiments (n = 3) and statistical differences between the induced case and other cases were analyzed and verified using a one-tailed Student’s t-test (*P < 0.05, **P < 0.01, ***P < 0.001).

[2] = target: T1, TLR7 (Mus musculus, UniProt P58681); assay: TLR7 inhibition, TNF-α secretion (ELISA) in RAW 264.7
T1 construct: endogenous in cells; host or cells: RAW 264.7
T1 sequence (P58681 27-1050): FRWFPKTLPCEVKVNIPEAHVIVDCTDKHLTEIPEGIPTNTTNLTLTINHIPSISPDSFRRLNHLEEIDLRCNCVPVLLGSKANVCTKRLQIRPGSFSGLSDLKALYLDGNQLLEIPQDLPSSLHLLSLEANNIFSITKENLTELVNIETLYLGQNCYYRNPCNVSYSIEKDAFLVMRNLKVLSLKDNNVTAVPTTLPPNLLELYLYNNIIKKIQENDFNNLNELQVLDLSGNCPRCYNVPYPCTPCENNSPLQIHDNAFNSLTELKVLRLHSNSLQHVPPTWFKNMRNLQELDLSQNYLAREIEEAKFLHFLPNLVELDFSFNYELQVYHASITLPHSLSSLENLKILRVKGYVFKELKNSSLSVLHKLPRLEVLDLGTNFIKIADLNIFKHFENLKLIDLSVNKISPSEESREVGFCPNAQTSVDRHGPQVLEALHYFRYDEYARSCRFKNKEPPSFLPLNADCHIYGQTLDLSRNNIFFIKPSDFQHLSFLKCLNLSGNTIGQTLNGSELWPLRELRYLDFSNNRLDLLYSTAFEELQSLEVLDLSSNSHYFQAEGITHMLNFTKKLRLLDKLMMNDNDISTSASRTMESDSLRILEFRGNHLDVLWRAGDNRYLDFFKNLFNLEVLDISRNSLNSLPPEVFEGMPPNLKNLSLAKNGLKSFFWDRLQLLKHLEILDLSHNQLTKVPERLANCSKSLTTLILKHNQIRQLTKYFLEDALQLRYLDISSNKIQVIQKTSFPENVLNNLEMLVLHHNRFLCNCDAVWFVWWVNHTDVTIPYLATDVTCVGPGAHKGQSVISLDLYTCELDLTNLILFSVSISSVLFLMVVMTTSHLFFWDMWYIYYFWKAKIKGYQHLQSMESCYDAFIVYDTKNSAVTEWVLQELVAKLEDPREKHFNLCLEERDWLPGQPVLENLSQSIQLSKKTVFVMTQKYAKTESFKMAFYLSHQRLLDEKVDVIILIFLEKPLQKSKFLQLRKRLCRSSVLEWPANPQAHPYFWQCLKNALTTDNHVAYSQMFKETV
Method: (§1) RAW 264.7 and differentiated THP-1 cells were seeded into 96-well plates at 2 × 10^4 cells per well, while Daudi cells were seeded at 5 × 10^4 cells per well. After stabilization for 30 min, cells were stimulated with specific TLR agonists for 4 or 24 h. Supernatants were diluted and transferred to precoated ELISA plates to measure TNF-α secretion using kits from Invitrogen. Optical absorbance was measured using a BioTek Synergy HTX multimode microplate reader, and data were interpolated using BioTek Gen5 software.
(§2) One-tailed paired Student’s t-tests were performed using Microsoft Excel (Microsoft). Semi-logarithmic conversions and nonregression curve analyses for calculating 50% lethal concentration (LC50) and 50% inhibitory concentration (IC50) values were conducted using GraphPad Prism 7.0 (GraphPad). The therapeutic index was calculated as […]. Animal experimental results are expressed as mean ± standard deviation and analyzed using SPSS v.20 (IBM SPSS Statistics). Homogeneity of variance was assessed using Levene’s test.
(§3) The cells were activated with agonistic ligands: […], TLR3 (poly I:C, 2 μg/ml, 24 h), TLR4 (LPS, 10 or 100 ng/ml, 4 h), TLR5 (FLA-ST, 500 ng/ml, 4 h), TLR7 (ORN06/LyoVec, 2 μg/ml, 24 h; and IMQ, 1 μg/ml, 4 h), TLR8 (TL8-506, 2 μg/ml, 24 h) and TLR9 (ODN2395, 1 μM, 4 h) at various concentrations in RAW 264.7 cells, human Daudi cells and THP-1 cells. Data are from at least three independent experiments (n = 3) and statistical differences between the induced case and other cases were analyzed and verified using a one-tailed Student’s t-test (*P < 0.05, **P < 0.01, ***P < 0.001).

[3] = target: T2, TLR9 (Mus musculus, UniProt Q9EQU3); assay: TLR9 inhibition, TNF-α secretion (ELISA) in RAW 264.7; settings: RAW 264.7 cell line; read-out: TLR9 IC50 (mTNFα)
T2 construct: endogenous in cells; host or cells: RAW 264.7
T2 sequence (Q9EQU3 26-1032): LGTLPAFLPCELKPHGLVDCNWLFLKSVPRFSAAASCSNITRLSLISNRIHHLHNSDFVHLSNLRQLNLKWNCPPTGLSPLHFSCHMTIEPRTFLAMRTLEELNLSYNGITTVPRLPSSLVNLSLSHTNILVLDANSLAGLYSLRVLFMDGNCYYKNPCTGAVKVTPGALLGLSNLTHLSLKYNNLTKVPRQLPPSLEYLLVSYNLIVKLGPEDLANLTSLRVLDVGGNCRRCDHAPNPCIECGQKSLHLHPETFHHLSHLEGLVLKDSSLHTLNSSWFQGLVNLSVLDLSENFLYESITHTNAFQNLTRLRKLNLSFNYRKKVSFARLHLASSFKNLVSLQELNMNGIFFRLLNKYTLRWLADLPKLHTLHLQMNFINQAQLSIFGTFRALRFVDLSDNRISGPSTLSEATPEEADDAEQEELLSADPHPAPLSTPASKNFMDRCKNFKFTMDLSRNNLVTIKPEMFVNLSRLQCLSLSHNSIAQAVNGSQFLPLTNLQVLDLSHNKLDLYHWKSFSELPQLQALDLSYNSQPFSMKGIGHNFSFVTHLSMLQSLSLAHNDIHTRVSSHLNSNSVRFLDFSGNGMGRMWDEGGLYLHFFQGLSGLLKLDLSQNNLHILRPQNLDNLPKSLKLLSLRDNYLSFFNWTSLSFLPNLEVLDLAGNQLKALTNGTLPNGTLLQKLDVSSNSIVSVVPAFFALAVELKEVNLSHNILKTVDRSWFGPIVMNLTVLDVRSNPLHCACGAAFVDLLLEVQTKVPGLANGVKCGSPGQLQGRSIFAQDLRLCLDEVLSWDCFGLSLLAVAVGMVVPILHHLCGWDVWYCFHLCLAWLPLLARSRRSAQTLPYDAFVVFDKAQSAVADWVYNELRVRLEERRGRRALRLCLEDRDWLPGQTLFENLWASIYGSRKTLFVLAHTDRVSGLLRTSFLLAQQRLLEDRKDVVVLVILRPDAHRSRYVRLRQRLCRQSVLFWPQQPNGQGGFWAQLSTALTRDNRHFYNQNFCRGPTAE
Method: as §1, §2, §3

[4] = test system: endosomal TLRs; assay: Endosomal TLR-mediated TNF-α production, summary over cell lines; settings: dose-dependent, without inducing cytotoxic effects
Method: as §1
TLR activation triggers the NF-κB pathway, resulting in increased production of pro-inflammatory cytokines, such as TNF-α and IL-6.

For `Cc1c(C)n(CCCN(C)C)c2nc3c(c(N)c12)CCCCC3` [ETI15, 1-(3-(dimethylamino)propyl)-2,3-dimethyl-1,5,6,7,8,9-hexahydrocyclohepta[b]pyrrolo[3,2-e]pyridin-4-amine], the CC50 at 24 h [1] was 67900 nM, the IC50 ([2]; RAW 264.7 cell line, read-out: TLR7 IC50 (mTNFα)) was 2810 nM and the “TLR7 TI value” ([2]; therapeutic index, RAW 264.7) was 24.16. The IC50 [3] was 360 nM and the “TNF-α production by RAW 264.7 and Daudi cells” value [4] was “effectively inhibited”.
